Data reported in PMC6220303 (EMBO Molecular Medicine, 2018).
“And” between values parts separate entries of the source, which are not always exact repeats. Identical values can stand only once. “Also recorded” adds a separate entry of the source.

Legend:
[1] = system: Aβ40 in rat brain tissue; assay: Aβ40 in rat brain and CSF after single oral dose; format: in vivo
Method: Therefore, we measured Aβ40 in rat brain tissue 4 h after oral administration over a range of doses. […] In addition, the effect‐over‐time curves for brain and CSF almost completely superimposed, showing that Aβ pharmacodynamics in CSF mirrors very well that in brain tissue.
Experiments were carried out in accordance with the guidelines of the Swiss Federal and Cantonal veterinary offices for care and use of laboratory animals or the Canadian Council on Animal Care (Ottawa, Canada), and the ARRIVE guidelines. Studies described in this report were approved by the Swiss Cantonal Veterinary Authority of Basel City, Switzerland, and performed according to animal license numbers BS‐2063, BS‐2077, and BS‐1094. Methods employed in PK/PD studies in rats and dogs are described (Neumann et al, 2015).
Electrochemiluminescence immunoassays (Mesoscale Diagnostics, Rockville, MD, USA) were used to determine Aβ38, Aβ40, Aβ42, sAPPα, and sAPPβ. For studies in normal mice and rats, the endogenous Aβ40 was extracted from the brain homogenate with 1% Triton X‐100, and the 4G8‐based assay kit was used for quantification according to the manufacturer's instructions. CSF was collected from the cisterna magna and also analyzed using the 4G8 kit. For studies in dogs, CSF was collected via a ventricular port, and the 6E10‐based Mesoscale Diagnostics kit for Aβ was used. For studies in APP23 mice, Aβ40 and Aβ42 were determined after extraction with 70% formic acid and subsequent neutralization.

[2] = system: CSF Aβ40; assay: Human CSF Aβ40, Phase IIa study of 3-month duration; format: in vivo; settings: for reduction in CSF Aβ40 concentrations: 3 months, mean ± SEM
Text: All study participants underwent CSF sampling at baseline and at the end of treatment; in addition, we collected CSF at a number of intermediate time points (n = 2–7/time point).
CSF Aβ38, Aβ40, Aβ42, sAPPα, and sAPPβ were quantified in human CSF with 0.2% (v/v) Tween®‐20 using validated sandwich‐based multiplexed electrochemiluminescence methods (MesoScale Discovery, […], MD, USA). […]
Secondary • To assess the change from baseline of CSF Aβ concentrations (Aβ1-
Objectives 38; Aβ1-40; Aβ1-42) in healthy elderly subjects over 13 weeks

[3] = system: dogs; assay: Long-term toxicology studies in dogs; format: in vivo, dog
Method: In long‐term toxicology studies, dose‐limiting non‐specific central nervous system (CNS) effects (including impaired mobility and tremor) occurred in dogs at ≥ 30 mg/kg/day and in male rats (adverse effects only observed at doses ≥ 500 mg/kg/day). […] After CNP520 withdrawal, all changes either trended toward being, or were, fully reversible. The organs that were affected by drug toxicity in these animal studies either were not relevant to the clinical target population or the toxicities occurred at a dose substantially higher than the efficacious clinical dose.
(§1) In vivo animal toxicity studies were performed according to ICH guidance for industry M3(R2) and conformed to the Institutional Animal Care and Use Guidelines for the contract laboratory and sponsor. […] Recovery was assessed after a 12‐week treatment‐free period. Beagle dogs from Marshall BKU UK, 11 months of age, were given 0 (vehicle), 5, 15, or 30 mg/kg/day for 39 weeks. Vehicle consisted of 0.5% (w/v) methylcellulose (1,500 cPS) in 0.1% (v/v) polysorbate 80 (Tween®‐80) in reverse osmosis water. At necropsy, tissues were immersion fixed in 10% neutral‐buffered formalin or modified Davidson's solution and then processed by routine methods to paraffin block and hematoxylin–eosin (H&E)‐stained histologic slides.

[4] = Animal toxicology studies, any species; format: in vivo
Method: as §1

For `C[C@@]1(c2nc(NC(=O)c3ncc(C(F)(F)F)cc3Cl)ccc2F)CO[C@@](C)(C(F)(F)F)C(N)=N1` [CNP520], the “Aβ40 reduction in rat brain and CSF” value ([1]; 24 h after single oral 30 μmol/kg (15.4 mg/kg) dose) was ~ 50%, the ED50 ([1]; Rattus norvegicus, read-out: ED50, oral dose required for 50% lowering of rat brain Aβ40, 4 h after oral administration) was 2.4 ± 0.31 mg/kg and the “reduction of Aβ40 in rat brain tissue compared to untreated controls” value ([1]; highest dose, 4 h after oral administration, mean ± SD) was 89.3 ± 4.5%. For the same molecule, the “reduction in CSF Aβ40 concentrations” value ([2]; 2-mg daily dose) was 22.6 ± 2.1%, the “reduction in CSF Aβ40 concentrations” value ([2]; 85-mg daily dose) was 90.7 ± 0.37% and the “ED50(free)” value ([2]; corrected for plasma protein binding, human plasma) was 3.3 nM. The “ED50: total plasma CNP520 concentration at fifty percent reduction of CSF Aβ40” value ([2]; human plasma, Phase IIa) was 37.5 ± 2.9 ng/ml and 73.5 ± 5.8 nM, the “No Adverse Effect Level” value ([3]; dog, authors' response in review file) was 30 mg/kg/day and the “dose with dose-limiting non-specific CNS effects (impaired mobility, tremor)” value ([3]; dogs, long-term toxicology) was at least 30 mg/kg/day. For the same molecule, the “morphological changes in CNS, peripheral nervous system, liver, endocrine pancreas, retina, skin” value ([4]; any species) was “No morphological changes were identified”, the “depigmentation in long-term animal toxicology studies” value ([4]; including 9 months dosing in dogs) was “no signs of depigmentation; also recorded: did not result in hair depigmentation” and the retinal degeneration ([4]; long-term toxicological studies in rats and dogs) was “no retinal degeneration”.
